Source: US20260015350A1, “AZAQUINAZOLINE PAN-KRAS INHIBITORS” (Mirati Therapeutics, Inc., priority 2022, published 2026)

What was measured:
KRas^WT = target: T1, KRas^WT (Homo sapiens, UniProt P01116); assay: KRas binding assay (TR-FRET tracer displacement), KRas WT; conditions: TR-FRET tracer displacement, KRas WT
T1 construct: Biotinylated KRas (corresponding to amino acids 1-169, produced at Accelegan Inc.); biotin (biotinylated); purchased Accelegan Inc

KRas^G12A = target: T2, KRas^G12A (Homo sapiens, UniProt P01116, G12A); assay: KRas binding assay (TR-FRET tracer displacement), KRas G12A; conditions: TR-FRET tracer displacement, KRas G12A
T2 construct: Biotinylated KRas (corresponding to amino acids 1-169, produced at Accelegan Inc.); biotin (biotinylated); purchased Accelegan Inc
T2 sequence (P01116 1-169 isoform P01116-2 G12A): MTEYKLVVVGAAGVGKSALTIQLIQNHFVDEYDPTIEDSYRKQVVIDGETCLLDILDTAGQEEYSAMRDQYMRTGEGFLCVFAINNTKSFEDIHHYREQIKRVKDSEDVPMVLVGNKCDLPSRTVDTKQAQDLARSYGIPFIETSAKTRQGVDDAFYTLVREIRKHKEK

KRas^G12C = target: T3, KRas^G12C (Homo sapiens, UniProt P01116, G12C); assay: KRas binding assay (TR-FRET tracer displacement), KRas G12C; conditions: TR-FRET tracer displacement, KRas G12C
T3 construct: Biotinylated KRas (corresponding to amino acids 1-169, produced at Accelegan Inc.); biotin (biotinylated); purchased Accelegan Inc
T3 sequence (P01116 1-169 isoform P01116-2 G12C): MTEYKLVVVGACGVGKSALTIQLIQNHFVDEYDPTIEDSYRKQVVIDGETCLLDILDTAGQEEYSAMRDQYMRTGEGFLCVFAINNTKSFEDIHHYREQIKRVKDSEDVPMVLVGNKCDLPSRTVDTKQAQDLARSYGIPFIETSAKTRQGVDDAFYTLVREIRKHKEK

KRas^G12D = target: T4, KRas^G12D (Homo sapiens, UniProt P01116, G12D); assay: KRas binding assay (TR-FRET tracer displacement), KRas G12D
T4 construct: Biotinylated KRas (corresponding to amino acids 1-169, produced at Accelegan Inc.); biotin (biotinylated); purchased Accelegan Inc
T4 sequence (P01116 1-169 isoform P01116-2 G12D): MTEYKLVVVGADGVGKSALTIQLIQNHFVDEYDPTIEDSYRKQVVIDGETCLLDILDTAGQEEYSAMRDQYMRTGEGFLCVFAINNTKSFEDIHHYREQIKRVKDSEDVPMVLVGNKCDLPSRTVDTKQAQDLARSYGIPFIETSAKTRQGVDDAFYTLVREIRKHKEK

KRas^G12R = target: T5, KRas^G12R (Homo sapiens, UniProt P01116, G12R); assay: KRas binding assay (TR-FRET tracer displacement), KRas G12R
T5 construct: Biotinylated KRas (corresponding to amino acids 1-169, produced at Accelegan Inc.); biotin (biotinylated); purchased Accelegan Inc
T5 sequence (P01116 1-169 isoform P01116-2 G12R): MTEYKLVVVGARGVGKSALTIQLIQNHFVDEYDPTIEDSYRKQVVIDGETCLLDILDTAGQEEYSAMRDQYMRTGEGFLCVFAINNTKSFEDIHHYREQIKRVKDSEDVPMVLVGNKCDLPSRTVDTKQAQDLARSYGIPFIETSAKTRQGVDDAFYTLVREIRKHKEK

KRas^G12S = target: T6, KRas^G12S (Homo sapiens, UniProt P01116, G12S); assay: KRas binding assay (TR-FRET tracer displacement), KRas G12S; conditions: TR-FRET tracer displacement, KRas G12S
T6 construct: Biotinylated KRas (corresponding to amino acids 1-169, produced at Accelegan Inc.); biotin (biotinylated); purchased Accelegan Inc
T6 sequence (P01116 1-169 isoform P01116-2 G12S): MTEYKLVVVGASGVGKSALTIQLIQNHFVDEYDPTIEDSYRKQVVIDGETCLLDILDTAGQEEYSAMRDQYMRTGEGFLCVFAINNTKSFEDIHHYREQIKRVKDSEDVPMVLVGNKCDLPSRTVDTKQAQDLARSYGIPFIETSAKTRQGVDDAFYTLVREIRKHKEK

KRas^G12V = target: T7, KRas^G12V (Homo sapiens, UniProt P01116, G12V); assay: KRas binding assay (TR-FRET tracer displacement), KRas G12V
T7 construct: Biotinylated KRas (corresponding to amino acids 1-169, produced at Accelegan Inc.); biotin (biotinylated); purchased Accelegan Inc
T7 sequence (P01116 1-169 isoform P01116-2 G12V): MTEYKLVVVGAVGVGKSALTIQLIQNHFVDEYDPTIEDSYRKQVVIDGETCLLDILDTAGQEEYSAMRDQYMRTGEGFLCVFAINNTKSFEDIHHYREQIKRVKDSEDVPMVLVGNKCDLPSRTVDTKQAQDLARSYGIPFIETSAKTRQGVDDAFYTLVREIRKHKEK

KRas^G13D = target: T8, KRas^G13D (Homo sapiens, UniProt P01116, G13D); assay: KRas binding assay (TR-FRET tracer displacement), KRas G13D; conditions: TR-FRET tracer displacement, KRas G13D
T8 construct: Biotinylated KRas (corresponding to amino acids 1-169, produced at Accelegan Inc.); biotin (biotinylated); purchased Accelegan Inc
T8 sequence (P01116 1-169 isoform P01116-2 G13D): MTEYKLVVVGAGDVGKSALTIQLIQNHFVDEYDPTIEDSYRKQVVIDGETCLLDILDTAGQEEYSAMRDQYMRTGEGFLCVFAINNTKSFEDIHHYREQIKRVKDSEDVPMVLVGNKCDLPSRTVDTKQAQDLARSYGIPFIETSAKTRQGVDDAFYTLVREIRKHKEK

KRas^Q61H = target: T9, KRas^Q61H (Homo sapiens, UniProt P01116, Q61H); assay: KRas binding assay (TR-FRET tracer displacement), KRas Q61H; conditions: TR-FRET tracer displacement, KRas Q61H
T9 construct: Biotinylated KRas (corresponding to amino acids 1-169, produced at Accelegan Inc.); biotin (biotinylated); purchased Accelegan Inc
T9 sequence (P01116 1-169 isoform P01116-2 Q61H): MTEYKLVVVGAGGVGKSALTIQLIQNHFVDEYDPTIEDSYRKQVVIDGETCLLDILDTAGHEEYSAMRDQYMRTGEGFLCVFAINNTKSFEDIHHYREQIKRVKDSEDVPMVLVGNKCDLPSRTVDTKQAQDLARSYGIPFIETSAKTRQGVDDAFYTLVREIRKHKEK

[1] = system: KRas-mediated phosphorylation of ERK in AsPC-1 cells; assay: Inhibition of KRas-mediated phosphorylation of ERK (Cisbio HTRF pERK), AsPC-1 cells; assay type: cell-based; conditions: Homo sapiens, ASPC1, AsPC-1 cells; HTRF pERK
Outline: (§1)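 Signal read by HTRF (d2/Cryptate antibody pair, 2 hr room-temperature incubation on lysate). Cells: 6,000 per well, 3 hr compound exposure. Titration: 10 uM highest, 3-fold, 10 points.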

[2] = system: KRas-mediated phosphorylation of ERK in H727 cells; assay: Inhibition of KRas-mediated phosphorylation of ERK (Cisbio HTRF pERK), H727 cells; assay type: cell-based; conditions: Homo sapiens, NCI-H727, H727 cells; HTRF pERK
Outline: as §1

T1 sequence (P01116 1-169 isoform P01116-2): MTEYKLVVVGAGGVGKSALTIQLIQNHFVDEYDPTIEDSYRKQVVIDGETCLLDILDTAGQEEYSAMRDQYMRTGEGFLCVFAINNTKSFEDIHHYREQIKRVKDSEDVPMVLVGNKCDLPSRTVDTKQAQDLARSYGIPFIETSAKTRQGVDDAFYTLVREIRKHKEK

| SMILES | IC50 (KRas^WT) | IC50 (KRas^G12A) | IC50 (KRas^G12C) | IC50 (KRas^G12D) | IC50 (KRas^G12R) | IC50 (KRas^G12S) | IC50 (KRas^G12V) | IC50 (KRas^G13D) | IC50 (KRas^Q61H) | IC50 [1] | IC50 [2] |
| --- | --- | --- | --- | --- | --- | --- | --- | --- | --- | --- | --- |
| CC1(O)COCCN(c2nc(OCC34CCCN3CCC4)nc3c(F)c(-c4cc(O)cc(Cl)c4C4CC4)ncc23)C1 (racemic) [Example 740, rac-(R)-4-(7-(3-chloro-2-cyclopropyl-5-hydroxyphenyl)-8-fluoro-2-((tetrahydro-1H-pyrrolizin-7a(5H)-yl)methoxy)pyrido[4,3-d]pyrimidin-4-yl)-6-methyl-1,4-oxazepan-6-ol] | 9 nM | 10 nM | 7 nM | 4 nM | 11 nM | 9 nM | 5 nM | 8 nM | 6 nM | 2630 nM | 3160 nM |
| Cc1cc2[nH]ncc2c(-c2ncc3c(N4CC5CC(O)C(C5)C4)nc(OCC45CCCN4CCC5)nc3c2F)c1C (stereo not drawn) [Example 725, 3-(7-(5,6-dimethyl-1H-indazol-4-yl)-8-fluoro-2-((tetrahydro-1H-pyrrolizin-7a(5H)-yl)methoxy)pyrido[4,3-d]pyrimidin-4-yl)-3-azabicyclo[3.2.1]octan-6-ol] | 965 nM | 763 nM | 812 nM | 1610 nM | 441 nM | 494 nM | 410 nM | 1120 nM | 1210 nM | > 10000 nM | > 10000 nM |
| Cc1cc2[nH]ncc2c(-c2ncc3c(N4CC5C(=O)NC(=O)C5C4)nc(OCC45CCCN4CCC5)nc3c2F)c1C (stereo not drawn) [Example 726, 5-(7-(5,6-dimethyl-1H-indazol-4-yl)-8-fluoro-2-((hexahydro-1H-pyrrolizin-7a-yl)methoxy)pyrido[4,3-d]pyrimidin-4-yl)tetrahydropyrrolo[3,4-c]pyrrole-1,3(2H,3aH)-dione] | 145 nM | 242 nM | 208 nM | 58 nM | 344 nM | 68 nM | 131 nM | 138 nM | 177 nM | > 10000 nM | > 10000 nM |
| Cc1cc2[nH]ncc2c(-c2ncc3c(N4CCCC5(CC(O)C5)C4)nc(OCC45CCCN4CCC5)nc3c2F)c1C (stereo not drawn) [Example 727, 6-(7-(5,6-dimethyl-1H-indazol-4-yl)-8-fluoro-2-((hexahydro-1H-pyrrolizin-7a-yl)methoxy)pyrido[4,3-d]pyrimidin-4-yl)-6-azaspiro[3.5]nonan-2-ol] | 657 nM | 516 nM | 421 nM | 634 nM | 520 nM | 540 nM | 333 nM | 888 nM | 947 nM | > 10000 nM | > 10000 nM |
| Cc1cc2[nH]ncc2c(-c2ncc3c(N4CCCC5(CNC(=O)N5)C4)nc(OCC45CCCN4CCC5)nc3c2F)c1C (stereo not drawn) [Example 729, 7-(7-(5,6-dimethyl-1H-indazol-4-yl)-8-fluoro-2-((hexahydro-1H-pyrrolizin-7a-yl)methoxy)pyrido[4,3-d]pyrimidin-4-yl)-1,3,7-triazaspiro[4.5]decan-2-one] | 45 nM | 48 nM | 40 nM | 26 nM | 61 nM | 40 nM | 36 nM | 46 nM | 53 nM | > 10000 nM | > 10000 nM |
| Cc1cc2[nH]ncc2c(-c2ncc3c(N4CCCn5nc(C(=O)N(C)C)cc5C4)nc(OCC45CCCN4CCC5)nc3c2F)c1C [Example 730, 5-(7-(5,6-dimethyl-1H-indazol-4-yl)-8-fluoro-2-((hexahydro-1H-pyrrolizin-7a-yl)methoxy)pyrido[4,3-d]pyrimidin-4-yl)-N,N-dimethyl-5,6,7,8-tetrahydro-4H-pyrazolo[1,5-a][1,4]diazepine-2-carboxamide] | 343 nM | 251 nM | 131 nM | 35 nM | 203 nM | 113 nM | 75 nM | 513 nM | 444 nM | > 10000 nM | > 10000 nM |
| Cc1cc2[nH]ncc2c(-c2ncc3c(N4CCC[C@]5(C4)NC(=O)NC5=O)nc(OC[C@@]45CCCN4C[C@H](F)C5)nc3c2F)c1C [Example 731, (5R)-7-(7-(5,6-dimethyl-1H-indazol-4-yl)-8-fluoro-2-(((2R,7aS)-2-fluorohexahydro-1H-pyrrolizin-7a-yl)methoxy)pyrido[4,3-d]pyrimidin-4-yl)-1,3,7-triazaspiro[4.5]decane-2,4-dione] | 12 nM | 13 nM | 11 nM | 15 nM | 10 nM | 12 nM | 8 nM | 13 nM | 13 nM | > 10000 nM | > 10000 nM |
| Cc1cc2[nH]ncc2c(-c2ncc3c(N4CCC[C@]5(C4)NC(=O)NC5=O)nc(OCC4(CN(C)C)CC4)nc3c2F)c1C [Example 732, (5R)-7-(7-(5,6-dimethyl-1H-indazol-4-yl)-2-((1-((dimethylamino)methyl)cyclopropyl)methoxy)-8-fluoropyrido[4,3-d]pyrimidin-4-yl)-1,3,7-triazaspiro[4.5]decane-2,4-dione] | 50 nM | 61 nM | 43 nM | 113 nM | 47 nM | 63 nM | 31 nM | 60 nM | 79 nM | > 10000 nM | > 10000 nM |
| Oc1cc(Cl)c(C2CC2)c(-c2ncc3c(N4C[C@H]5C[C@@H](C4)[C@H](O)C5)nc(OCC45CCCN4CCC5)nc3c2F)c1 [Example 738, (1S,5S,6R)-3-(7-(3-chloro-2-cyclopropyl-5-hydroxyphenyl)-8-fluoro-2-((tetrahydro-1H-pyrrolizin-7a(5H)-yl)methoxy)pyrido[4,3-d]pyrimidin-4-yl)-3-azabicyclo[3.2.1]octan-6-ol] | 11 nM | 11 nM | 9 nM | 17 nM | 2 nM | 9 nM | 3 nM | 10 nM | 9 nM | 5960 nM | 1510 nM |
| Cc1cc2[nH]nnc2c(-c2ncc3c(N4CCCn5nc(C(=O)N(C)C)cc5C4)nc(OCC45CCCN4CCC5)nc3c2F)c1C [Example 839, 5-(7-(5,6-dimethyl-1H-benzo[d][1,2,3]triazol-4-yl)-8-fluoro-2-((tetrahydro-1H-pyrrolizin-7a(5H)-yl)methoxy)pyrido[4,3-d]pyrimidin-4-yl)-N,N-dimethyl-5,6,7,8-tetrahydro-4H-pyrazolo[1,5-a][1,4]diazepine-2-carboxamide] | 3780 nM | 2380 nM | 1630 nM | 153 nM | 2910 nM | 1260 nM | 743 nM | 4060 nM | 3810 nM |  |  |
| Cc1cc2[nH]nnc2c(-c2ncc3c(N4CCCC5(CNC(=O)N5)C4)nc(OCC45CCCN4CCC5)nc3c2F)c1C (stereo not drawn) [Example 856, 7-(7-(5,6-dimethyl-1H-benzo[d][1,2,3]triazol-4-yl)-8-fluoro-2-((tetrahydro-1H-pyrrolizin-7a(5H)-yl)methoxy)pyrido[4,3-d]pyrimidin-4-yl)-1,3,7-triazaspiro[4.5]decan-2-one] | 2820 nM | 2230 nM | 2060 nM | 1190 nM | 4270 nM | 2510 nM | 2200 nM | 2470 nM | 2830 nM |  |  |
| Cc1cc2[nH]ccc2c(-c2ncc3c(N4CCC[C@@](C)(O)C4)nc(OCC45CCCN4CCC5)nc3c2F)c1C [Example 871, (3R)-1-(7-(5,6-dimethyl-1H-indol-4-yl)-8-fluoro-2-((tetrahydro-1H-pyrrolizin-7a(5H)-yl)methoxy)pyrido[4,3-d]pyrimidin-4-yl)-3-methylpiperidin-3-ol] | 3420 nM | 3690 nM | 3820 nM | 2670 nM | 8950 nM | 4440 nM | 4410 nM | 2720 nM | 4530 nM |  |  |
| Cc1cc2[nH]cnc2c(-c2ncc3c(N4CCC[C@@](C)(O)C4)nc(OCC45CCCN4CCC5)nc3c2F)c1C [Example 888, (3R)-1-(7-(5,6-dimethyl-1H-benzo[d]imidazol-4-yl)-8-fluoro-2-((tetrahydro-1H-pyrrolizin-7a(5H)-yl)methoxy)pyrido[4,3-d]pyrimidin-4-yl)-3-methylpiperidin-3-ol] | 579 nM | 375 nM | 199 nM | 40700 nM | 62300 nM | 201 nM | 58300 nM | 567 nM | 539 nM |  |  |
